According to patent US10253002B2, “Compounds and methods of treating infections” (Neoculi Pty Ltd., priority 2013, dated 2019):
Where “and” joins values, the source holds several entries; their conditions need not be identical. Identical values can stand only once. Like-named read-outs stand apart in the source and are kept apart here.

Assays:
[1] = system: DNA synthesis in S. aureus ATCC 29213; test: Macromolecular synthesis assay: DNA synthesis ([3H] thymidine); format: cell-based, Staphylococcus aureus; conditions: control; 8 fold the MIC (0.5 μg/mL)
Experimental: Cells were grown at 35° C. overnight on Trypticase Soy agar. A colony from the plate was used to inoculate 10 ml of Mueller Hinton broth II (MHBII), and the culture was grown to early exponential growth phase (OD600==0.2 to 0.3) while incubating in a shaker at 35° C. and 200 rpm.
When cells reached early exponential phase, 100 μL of culture was added to triplicate wells containing various concentrations of test compound or control antibiotics (5 μL) at 20× the final concentration in 100% DMSO. A 5% DMSO treated culture served as the “no drug” control for all experiments. Cells were added in MHBII at 105% to account for the volume of drug added to each reaction or in M9 minimal medium for protein synthesis reactions. Following 15 min incubation at room temperature, either [^3H] thymidine (DNA synthesis), [^3H] uridine (RNA synthesis) or [^3H] leucine (protein synthesis) was added at 0.5-1.0 μCi per reaction, depending on the experiment. Reactions were allowed to proceed at room temperature for 15-30 min and then stopped by adding 12 μL of cold 5% trichloroacetic acid (TCA) or 5% TCA/2% casamino acids (protein synthesis only). Reactions were incubated on ice for 30 min and the TCA precipitated material was collected on a 25 mm GF/A filter. After washing three times with 5 ml of cold 5% TCA, the filters were rinsed two times with 5 mL 100% ethanol, allowed to dry, and then counted using a Beckman LS3801 liquid scintillation counter.

[2] = system: Staphylococcus aureus T3-129 / Staphylococcus spp. MK1; test: Synergy studies, checkerboard method (FIC index); format: cell-based; conditions: Staphylococcus spp. Strain MK1
[3] = system: Gram-negative bacteria (E. coli and Pseudomonas aeruginosa); test: Testing of NCL812 analogues, Gram-negative antibacterial activity; format: cell-based; conditions: MIC testing
Experimental: Minimum inhibitory concentrations (μg/ml) were determined using the broth microdilution method recommended by the Clinical and Laboratory Standards Institute (CLSI). MIC breakpoints were determined by visual assessment and then confirmed using an ELISA plate reader, measuring absorbance levels at 600 nm. Bacterial growth (turbidity) in the wells with antimicrobial was compared with the amount of growth (turbidity) in the growth-control well (containing no antimicrobial). All isolates were tested in duplicate, if there was a difference of greater than one two-fold dilution in the results, the test was repeated a third time. The purity of the isolates was closely monitored during testing by subculturing the prepared bacterial inoculum onto SBA (sheep blood agar). The MICs of the control strains for the antimicrobial ampicillin were determined for each testing run as an internal quality control. The MIC50, […] and MIC range (minimum and maximum) were calculated for each of the bacterial groups.
MICs were determined against two MRSA strains, two VRE strains and one strain each of E. coli and Pseudomonas aeruginosa.

Escherichia coli = test: Broth microdilution MIC, Example 7 (NCL812 and analogues); format: cell-based; conditions: for MIC (μg/ml) at 24 hours, E. coli: 1st and 2nd replicate rows; for MIC (μg/ml) at 24 hours E. coli ATCC25922: E. coli ATCC25922, 24 hours
MRSA = test: as above; format: cell-based, Staphylococcus aureus; conditions: for activity against MRSA among analogues: MIC testing, two MRSA strains; for MIC (μg/ml) at 24 hours, MRSA 1: isolate MRSA 1; for MIC (μg/ml) at 24 hours, MRSA 1 / MIC (μg/ml) at 24 hours, MRSA 2: 1st and 2nd replicate rows; for MIC (μg/ml) at 24 hours, MRSA 2: isolate MRSA 2; for MIC: Staphylococcus aureus, MRSA
Outline: (§1)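 Isolates were tested in duplicate, with a third run if replicates differed by more than one two-fold dilution; inoculum purity was checked on sheep blood agar.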

VRE = test: as above; format: cell-based, Enterococcus spp.; conditions: for activity against VRE among analogues: MIC testing, two VRE strains; for MIC (μg/ml) at 24 hours, VRE 1: isolate VRE 1; for MIC (μg/ml) at 24 hours, VRE 1 / MIC (μg/ml) at 24 hours, VRE 2: 1st and 2nd replicate rows; for MIC (μg/ml) at 24 hours, VRE 2: isolate VRE 2; for MIC: Enterococcus, VRE
Outline: as §1

Pseudomonas aeruginosa = test: as above; format: cell-based; conditions: for MIC (μg/ml) at 24 hours Pseudomonas #008: Pseudomonas #008, 24 hours
[4] = Bioassay ranking of the analogues tested; conditions: M + R (MRSA and VRE combined)
S. aureus ATCC29213 = test: Broth microdilution MIC, Example 7 (NCL analogues), Table 42; format: cell-based, Staphylococcus aureus; conditions: S. aureus ATCC29213, 24 hours
E. faecalis #32 = test: as above; format: cell-based, Enterococcus faecalis; conditions: E. faecalis #32, 24 hours
[5] = 24 hours, 1st and 2nd replicate rows

Row | SMILES | MIC (μg/ml) at 24 hours, E. coli (Escherichia coli; 24 hours) | MIC (μg/ml) at 24 hours, MRSA 1 (MRSA; 24 hours) | MIC (μg/ml) at 24 hours, MRSA 2 (MRSA; 24 hours) | MIC (μg/ml) at 24 hours, VRE 1 (VRE; 24 hours) | MIC (μg/ml) at 24 hours, VRE 2 (VRE; 24 hours) | MIC (μg/ml) at 24 hours, P. aeruginosa (Pseudomonas aeruginosa; [5]) | MIC (μg/ml) at 24 hours E. coli ATCC25922 (Escherichia coli) | MIC (μg/ml) at 24 hours S. aureus ATCC29213 (S. aureus ATCC29213) | MIC (μg/ml) at 24 hours E. faecalis #32 (E. faecalis #32) | MIC (μg/ml) at 24 hours Pseudomonas #008 (Pseudomonas aeruginosa) | level of Gram-negative antibacterial activity among analogues [3] | activity against MRSA among analogues (MRSA) | activity against VRE among analogues (VRE) | other results
1 | O=C(O)c1cn(C2CC2)c2cc(N3CCNCC3)c(F)cc2c1=O [Ciprofloxacin] |  |  |  |  |  |  |  |  |  |  |  |  |  | inhibition of DNA synthesis [1]: approximately 51%; FICI ([2]; FIC index of antibiotic with NCL812): 0.75 and 0.525 and 0.625 and 0.562; Antibiotic MIC Alone ([2]; antibiotic alone): 0.125 µg/mL and 0.25 µg/mL; Result (interaction with NCL812) ([2]; antibiotic with NCL812): NE (No effect (NE) was defined as 0.5<FICI<4)
2 | Cl.N=C(N/N=C/c1cc(O)c(O)c(O)c1)N/N=C/c1cc(O)c(O)c(O)c1 [NCL097, 2,2′-bis[(3,4,5-trihydroxyphenyl)methylene]carbonimidic Dihydrazide Hydrochloride] |  |  |  |  |  |  |  |  |  |  | highest level of Gram-negative antibacterial activity | greatest activity | greatest activity | MIC (Escherichia coli; Escherichia coli, read-out: MIC (μg/ml) at 24 hours, E. coli, 24 hours, duplicate lines per compound): > 128 µg/mL; MIC (MRSA; 24 h, read-out: MIC (μg/ml) at 24 hours, MRSA 1, MRSA 1, 24 hours, duplicate lines per compound): 128 µg/mL; MIC (MRSA; 24 h, read-out: MIC (μg/ml) at 24 hours, MRSA 2, MRSA 2, 24 hours, duplicate lines per compound): 32 µg/mL; MIC (VRE; 24 h, read-out: MIC (μg/ml) at 24 hours, VRE 1, VRE 1, 24 hours, duplicate lines per compound): 32 µg/mL; MIC (VRE; 24 h, read-out: MIC (μg/ml) at 24 hours, VRE 2, VRE 2, 24 hours, duplicate lines per compound): 32 µg/mL; MIC (μg/ml) at 24 hours, P. aeruginosa (Pseudomonas aeruginosa; P. aeruginosa, 24 hours, duplicate lines per compound, Hydrochloride): >128 µg/mL; MIC (Pseudomonas aeruginosa; Pseudomonas aeruginosa, 24 h, read-out: MIC (μg/ml) at 24 hours, P. aeruginosa, 24 hours, duplicate lines per compound): 128 µg/mL
3 | CCCC/C(=N\NC(=N)N)c1ccc(Cl)cc1.Cl [NCL188, (E)-2-(1-(4-chlorophenyl)pentylidene)hydrazine-1-carboximidamide Hydrochloride] |  |  |  |  |  |  |  |  |  |  | highest level of Gram-negative antibacterial activity | greatest activity | greatest activity | MIC (MRSA; bioassay ranking, read-out: MRSA): 16 µg/mL; MIC (VRE; bioassay ranking, read-out: VRE): 16 µg/mL; M + R [4]: 16 µg/mL
4 | Cl.Clc1ccc(/C=N/Nc2cc(N/N=C/c3ccc(Cl)cc3)ncn2)cc1 [NCL 187] |  |  |  |  |  |  | >64 µg/mL | >64 µg/mL | >64 µg/mL | >64 µg/mL |  |  |  | 
5 | Cl.[H]/N=C(\N)NN=C(CCCC)c1ccc(Cl)cc1 [NCL 188] |  |  |  |  |  |  | 64 µg/mL | 32 µg/mL | 32 µg/mL | >64 µg/mL |  |  |  | 
6 | Cl.OC/C(=N\Nc1cc(N/N=C(\CO)c2ccc(Cl)cc2)ncn1)c1ccc(Cl)cc1 [NCL 189] |  |  |  |  |  |  | >64 µg/mL | >64 µg/mL | >64 µg/mL | >64 µg/mL |  |  |  | 
7 | Cl.[H]/N=C(/N)NN=C(CNN)c1ccc(Cl)cc1 [NCL 190] |  |  |  |  |  |  | >64 µg/mL | 32 µg/mL and 64 µg/mL | 64 µg/mL | >64 µg/mL |  |  |  | 
8 | C/C(=N\NC(=N)N)c1ccc(Cl)cc1.Cl [NCL 191] |  |  |  |  |  |  | >64 µg/mL | >64 µg/mL | >64 µg/mL | >64 µg/mL |  |  |  | 
9 | Cl.N=C(N)NN=C(C(=O)O)c1ccccc1 [NCL 192] |  |  |  |  |  |  | >64 µg/mL | >64 µg/mL | >64 µg/mL | >64 µg/mL |  |  |  | 

Further lines, with some results ahead:

Row | MIC (μg/ml) at 24 hours, E. coli (Escherichia coli; 24 hours) | MIC (μg/ml) at 24 hours, MRSA 1 (MRSA; 24 hours) | MIC (μg/ml) at 24 hours, MRSA 2 (MRSA; 24 hours) | MIC (μg/ml) at 24 hours, VRE 1 (VRE; 24 hours) | MIC (μg/ml) at 24 hours, VRE 2 (VRE; 24 hours) | MIC (μg/ml) at 24 hours, P. aeruginosa (Pseudomonas aeruginosa; [5]) | MIC (μg/ml) at 24 hours E. coli ATCC25922 (Escherichia coli) | MIC (μg/ml) at 24 hours S. aureus ATCC29213 (S. aureus ATCC29213) | MIC (μg/ml) at 24 hours E. faecalis #32 (E. faecalis #32) | MIC (μg/ml) at 24 hours Pseudomonas #008 (Pseudomonas aeruginosa) | SMILES | level of Gram-negative antibacterial activity among analogues [3] | activity against MRSA among analogues (MRSA) | activity against VRE among analogues (VRE) | other results
10 | >128 µg/mL | 128 µg/mL | 128 µg/mL | 64 µg/mL | 64 µg/mL | 128 µg/mL |  |  |  |  | Cl.N=C(N)N/N=C/c1ccc(Cl)cc1 [NCL030] | highest level of Gram-negative antibacterial activity | greatest activity | greatest activity | 
11 | 128 µg/mL and 64 µg/mL | 64 µg/mL | 64 µg/mL | 64 µg/mL | 64 µg/mL | 128 µg/mL |  |  |  |  | Cl.N=C(N)N/N=C/c1ccc(C(F)(F)F)cc1 [NCL041] | highest level of Gram-negative antibacterial activity | greatest activity | greatest activity | 
12 | 128 µg/mL | 128 µg/mL | 128 µg/mL | 128 µg/mL | 128 µg/mL and 64 µg/mL | 128 µg/mL |  |  |  |  | Cl.N=C(N)N/N=C/c1cccc(C(F)(F)F)c1 [NCL043] | highest level of Gram-negative antibacterial activity | greatest activity | greatest activity | 
13 | >128 µg/mL | 128 µg/mL | 128 µg/mL | 128 µg/mL | 128 µg/mL | 128 µg/mL |  |  |  |  | Cc1ccc(/C=N/NC(=N)N)cc1.Cl [NCL044] | highest level of Gram-negative antibacterial activity | greatest activity | greatest activity | 
14 | >128 µg/mL | 128 µg/mL | 128 µg/mL | 128 µg/mL | 128 µg/mL | 128 µg/mL |  |  |  |  | Cl.N=C(N)N/N=C/c1cccc(Cl)c1 [NCL052] | highest level of Gram-negative antibacterial activity | greatest activity | greatest activity | 
15 | >128 µg/mL | >128 µg/mL | >128 µg/mL | >128 µg/mL | >128 µg/mL | 128 µg/mL |  |  |  |  | Cl.N=C(N)NN=Cc1ccc(F)cc1 [NCL053] | highest level of Gram-negative antibacterial activity |  |  | 
